# Experimental data published in patent publication US9938261B2, “Heterocyclic compounds and methods of use thereof” (AMBIT BIOSCIENCES CORPORATION, priority 2011, dated 2018).
# pIC50, pKd: −log10 of the molar value. Where two headings read alike, the source gives them in different places.
# What was measured:
# PDGFRβ = molecular target: T1, PDGFRβ (Homo sapiens, UniProt P09619); experiment: Competition binding assay, PDGFRβ Kd
# T1 construct: made in house
# Procedure, shortened: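 First, biotinylated affinity ligands were loaded onto streptavidin magnetic beads and blocked. Kinase, beads and compound were then equilibrated 1 hour at room temperature, washed, and eluted with non-biotinylated ligand. Eluted kinase was measured by qPCR, with Kd fitted from an eleven-point threefold dilution series.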
# CSF1R = CSF1R (Homo sapiens, UniProt P07333); experiment: HEK293 CSF1R phosphorylation MSD assay; type: cell-based; set-up: expressed in transfected cells; host or cells: HEK293; details: read-out: HEK293 pCSF1R M-CSF MSD:IC50
# Chain of CSF1R (P07333 20-972): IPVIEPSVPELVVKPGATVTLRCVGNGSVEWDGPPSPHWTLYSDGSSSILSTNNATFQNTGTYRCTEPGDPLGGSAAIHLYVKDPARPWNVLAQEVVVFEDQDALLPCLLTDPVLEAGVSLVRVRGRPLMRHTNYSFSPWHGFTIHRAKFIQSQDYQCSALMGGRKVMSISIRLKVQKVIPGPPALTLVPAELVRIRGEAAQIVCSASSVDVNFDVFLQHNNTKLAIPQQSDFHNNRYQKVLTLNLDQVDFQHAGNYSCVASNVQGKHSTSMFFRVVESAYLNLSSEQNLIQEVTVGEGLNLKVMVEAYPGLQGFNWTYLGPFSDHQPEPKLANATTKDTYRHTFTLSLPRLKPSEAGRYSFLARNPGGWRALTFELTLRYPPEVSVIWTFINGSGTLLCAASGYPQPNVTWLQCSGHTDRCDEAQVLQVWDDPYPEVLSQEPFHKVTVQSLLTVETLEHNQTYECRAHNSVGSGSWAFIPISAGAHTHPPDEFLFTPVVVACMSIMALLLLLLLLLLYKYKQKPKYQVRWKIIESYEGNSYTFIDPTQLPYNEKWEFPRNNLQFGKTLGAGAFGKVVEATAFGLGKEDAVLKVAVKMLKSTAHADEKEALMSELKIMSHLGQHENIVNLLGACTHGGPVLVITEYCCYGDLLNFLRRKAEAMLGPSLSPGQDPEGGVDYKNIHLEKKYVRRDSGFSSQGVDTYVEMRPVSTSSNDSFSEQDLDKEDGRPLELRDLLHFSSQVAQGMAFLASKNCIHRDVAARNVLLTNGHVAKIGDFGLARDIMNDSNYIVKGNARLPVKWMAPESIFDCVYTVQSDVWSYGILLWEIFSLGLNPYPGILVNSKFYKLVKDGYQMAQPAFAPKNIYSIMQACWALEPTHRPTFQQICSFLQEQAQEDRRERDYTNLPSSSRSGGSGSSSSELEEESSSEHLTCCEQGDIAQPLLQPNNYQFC
# Procedure, shortened: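 Ligand-induced CSF1R autophosphorylation was measured by MSD sandwich assay: CSF1R-FKBP from lysates captured via FK506, anti-phosphotyrosine readout. Cells were exposed to compound for 2 h (9-point, half-log, 0.5% DMSO) before 5 min 50 ng/mL M-CSF. Reported IC50 is the mean of duplicate-plate IC50s relative to DMSO control.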
# M-NFS-60 cells = experiment: M-NFS-60 cell proliferation assay (Alamar Blue); type: cell-based, mouse; details: read-out: CSF1R M-NFS-60 CTB:IC50
# Procedure, shortened: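 Alamar Blue reduction (3 h; 560/590 nm) measured viability after 72 h, 37 °C treatment with nine half-log compound concentrations at 0.5% DMSO. Cells: M-CSF-dependent (20 ng/mL) murine M-NFS-60 in RPMI plus 10% FBS. IC50s, averaged from duplicates, reflect half-maximal inhibition of proliferation relative to control.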
# [1] = 2 h compound, human M-CSF 50 ng/mL for 5 min
# [2] = Mus musculus, 72 hours incubation, M-CSF 20 ng/mL
# [3] = HEK293 cells, M-CSF stimulated CSF1R phosphorylation, MSD
# [4] = Mus musculus, M-NFS-60 cell proliferation
# T1 sequence (P09619 33-1106): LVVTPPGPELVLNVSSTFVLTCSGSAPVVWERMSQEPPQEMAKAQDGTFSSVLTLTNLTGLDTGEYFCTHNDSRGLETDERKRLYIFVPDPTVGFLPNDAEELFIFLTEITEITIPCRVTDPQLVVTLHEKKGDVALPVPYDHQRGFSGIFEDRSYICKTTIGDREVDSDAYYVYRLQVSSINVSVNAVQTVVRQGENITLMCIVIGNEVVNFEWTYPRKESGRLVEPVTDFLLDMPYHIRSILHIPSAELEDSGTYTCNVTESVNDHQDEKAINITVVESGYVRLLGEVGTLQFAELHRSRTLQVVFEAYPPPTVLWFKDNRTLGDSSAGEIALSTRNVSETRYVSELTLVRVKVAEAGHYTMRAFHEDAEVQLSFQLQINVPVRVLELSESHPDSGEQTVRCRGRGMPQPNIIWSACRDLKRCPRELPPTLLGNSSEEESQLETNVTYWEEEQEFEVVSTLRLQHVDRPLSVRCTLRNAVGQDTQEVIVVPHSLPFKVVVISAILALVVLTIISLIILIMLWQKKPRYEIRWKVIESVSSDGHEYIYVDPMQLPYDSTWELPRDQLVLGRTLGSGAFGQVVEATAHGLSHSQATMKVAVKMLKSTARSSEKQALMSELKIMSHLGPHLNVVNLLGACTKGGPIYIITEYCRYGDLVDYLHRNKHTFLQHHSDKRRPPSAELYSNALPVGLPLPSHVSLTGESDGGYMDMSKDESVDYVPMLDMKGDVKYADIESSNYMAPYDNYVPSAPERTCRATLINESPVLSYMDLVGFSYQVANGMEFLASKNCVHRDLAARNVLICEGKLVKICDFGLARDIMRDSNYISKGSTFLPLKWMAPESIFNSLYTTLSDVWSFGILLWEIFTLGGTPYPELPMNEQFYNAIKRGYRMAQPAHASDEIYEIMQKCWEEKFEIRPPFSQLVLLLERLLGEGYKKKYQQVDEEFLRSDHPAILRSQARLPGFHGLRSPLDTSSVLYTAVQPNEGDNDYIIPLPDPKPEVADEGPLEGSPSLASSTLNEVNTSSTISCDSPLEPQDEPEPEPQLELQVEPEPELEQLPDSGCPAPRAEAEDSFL
Molecule,pKd (PDGFRβ),pIC50 (CSF1R; [1]),pIC50 (M-NFS-60 cells; [2]),"pIC50 (M-NFS-60 cells; 72 hours incubation, M-CSF 20 ng/mL)",pKd (PDGFRβ; competition binding),pIC50 (CSF1R; [3]),pIC50 (M-NFS-60 cells; [4])
"COc1cc2ncn(Cc3ccc4nc(N[C@@H]5CCCC[C@H]5O)sc4c3)c2cc1C#N [Example 53, 1-((2-(((1R,2R)-2-hydroxycyclohexyl)amino)benzo[d]thiazol-6-yl)methyl)-5-methoxy-1H-benzo[d]imidazole-6-carbonitrile]",6.30 to 7.30,≥ 7.30,≥ 7.30,–,–,–,–
"COc1cc2ncn(Cc3ccc4nc(N[C@@H]5CCCC[C@H]5O)sc4c3)c2cc1Br [Example 47, (1R,2R)-2-((6-((6-bromo-5-methoxy-1H-benzo[d]imidazol-1-yl)methyl)benzo[d]thiazol-2-yl)amino)cyclohexanol]",6.30 to 7.30,6.70 to 7.30,≥ 7.30,–,–,–,–
"O[C@@H]1CCCC[C@H]1Nc1nc2ccc(Cn3cnc4cc(C5CC5)cnc43)cc2s1 [Example 45, (1R,2R)-2-((6-((6-cyclopropyl-3H-imidazo[4,5-b]pyridin-3-yl)methyl)benzo[d]thiazol-2-yl)amino)cyclohexanol]",≥ 7.30,≥ 7.30,≥ 7.30,–,–,–,–
"COc1ccn2c(Cc3ccc4nc(N[C@@H]5CCCC[C@H]5O)sc4c3)cnc2c1 [Example 44, (1R,2R)-2-((6-((7-methoxyimidazo[1,2-a]pyridin-3-yl)methyl)benzo[d]thiazol-2-yl)amino)cyclohexanol]",5.70 to 6.30,6.70 to 7.30,6.40 to 7.30,–,–,–,–
"O[C@@H]1Cc2ccccc2[C@H]1Nc1nc2ccc(Cn3cnc4cccnc43)cc2o1 [Example 57, (1R,2R)-1-((6-((3H-imidazo[4,5-b]pyridin-3-yl)methyl)benzo[d]oxazol-2-yl)amino)-2,3-dihydro-1H-inden-2-ol]",≥ 7.30,6.70 to 7.30,6.40 to 7.30,–,–,–,–
"either (1R,2R)-2-((6-((3H-imidazo[4,5-b]pyridin-3-yl)methyl)benzo[d]thiazol-2-yl)amino)-1-methylcyclohexanol or (1S,2R)-2-((6-((3H-imidazo[4,5-b]pyridin-3-yl)methyl)benzo[d]thiazol-2-yl)amino)-1-methylcyclohexanol [Example 60]",≥ 7.30,6.70 to 7.30,–,6.40 to 7.30,–,–,–
"C#Cc1cnc2c(c1)ncn2Cc1ccc2nc(N[C@@H]3CCCC[C@H]3O)sc2c1 [Example 96, (1R,2R)-2-((6-((6-ethynyl-3H-imidazo[4,5-b]pyridin-3-yl)methyl)benzo[d]thiazol-2-yl)amino)cyclohexanol]",≥ 7.30,≥ 7.30,≥ 7.30,–,–,–,–
"OCC1(CNc2nc3ccc(Cn4cnc5cccnc54)cc3s2)CCCCC1 [Example 76, (1-(((6-((3H-imidazo[4,5-b]pyridin-3-yl)methyl)benzo[d]thiazol-2-yl)amino)methyl)cyclohexyl)methanol]",≥ 7.30,6.70 to 7.30,6.40 to 7.30,–,–,–,–
"O[C@@H]1CCCC[C@H]1Nc1nc2ccc(Cn3cnc4cc(N5CCOCC5)cnc43)cc2s1 [Example 97, (1R,2R)-2-((6-((6-morpholino-3H-imidazo[4,5-b]pyridin-3-yl)methyl)benzo[d]thiazol-2-yl)amino)cyclohexanol]",≥ 7.30,≥ 7.30,≥ 7.30,–,–,–,–
"CNC(=O)c1cn(Cc2ccc3nc(N[C@@H]4CCCC[C@H]4O)sc3c2)cn1 [Example 37, 1-((2-(((1R,2R)-2-hydroxycyclohexyl)amino)benzo[d]thiazol-6-yl)methyl)-N-methyl-1H-imidazole-4-carboxamide]",< 5.70,< 6.30,< 5.82,–,–,–,–
"CSc1cnc2c(c1)ncn2Cc1ccc2nc(N[C@@H]3CCCC[C@H]3O)sc2c1 [Example 85, (1R,2R)-2-((6-((6-(methylthio)-3H-imidazo[4,5-b]pyridin-3-yl)methyl)benzo[d]thiazol-2-yl)amino)cyclohexanol]",≥ 7.30,≥ 7.30,≥ 7.30,–,–,–,–
"N#Cc1cnc2c(c1)ncn2Cc1ccc2nc(N[C@@H]3CCCC[C@H]3O)sc2c1 [Example 43, 3-((2-(((1R,2R)-2-hydroxycyclohexyl)amino)benzo[d]thiazol-6-yl)methyl)-3H-imidazo[4,5-b]pyridine-6-carbonitrile]",6.30 to 7.30,6.70 to 7.30,6.40 to 7.30,–,–,–,–
"OC[C@H](Nc1nc2ccc(Cn3cnc4cccnc43)cc2s1)C1CCCCC1 [Example 64, (R)-2-((6-((3H-imidazo[4,5-b]pyridin-3-yl)methyl)benzo[d]thiazol-2-yl)amino)-2-cyclohexylethanol]",≥ 7.30,6.30 to 6.70,6.40 to 7.30,–,–,–,–
"N#CCOc1ccc2c(c1)ncn2Cc1ccc2nc(N[C@@H]3CCCC[C@H]3O)sc2c1 [Example 196, 2-((1-((2-(((1R,2R)-2-hydroxycyclohexyl)amino)benzo[d]thiazol-6-yl)methyl)-1H-benzo[d]imidazol-5-yl)oxy)acetonitrile]",–,–,–,–,6.30 to 7.30,≥ 7.30,6.40 to 7.30
"N#Cc1cc(F)c2c(c1)ncn2Cc1ccc2nc(N[C@@H]3CCCC[C@H]3O)sc2c1 [Example 206, 7-fluoro-1-((2-(((1R,2R)-2-hydroxycyclohexyl)amino)benzo[d]thiazol-6-yl)methyl)-1H-benzo[d]imidazole-5-carbonitrile]",–,–,–,–,6.30 to 7.30,6.70 to 7.30,6.40 to 7.30
"CCc1cnc2c(c1)ncn2Cc1ccc2nc(N[C@@H]3CCCC[C@H]3O)sc2c1 [Example 102, (1R,2R)-2-((6-((6-ethyl-3H-imidazo[4,5-b]pyridin-3-yl)methyl)benzo[d]thiazol-2-yl)amino)cyclohexanol]",≥ 7.30,≥ 7.30,≥ 7.30,–,–,–,–
